No end group written: not given here.
Columns and labels:
Rev-GFP = assay: ELISA-based binding assay, Rev-GFP on peptide-coated plates; design: species or system HIV-1; conditions: screen of IN peptide library
Experimental: (§1) Protein-peptide binding was estimated using an ELISA-based binding assay as described previously (Rosenbluh et al., 2006, Anal Biochem 352, 157-168). Briefly, Maxisorp plates (Nunc) were incubated at room temperature for 2 h with 200 μl of 10 μg/ml synthetic peptide in carbonate buffer. After incubation, the solution was removed, the plates were washed three times with PBS, and 200 μl of 10% BSA in PBS (w/v) was added for 2 h at room temperature. […] Following three washes with PBS, the concentration of bound biotinylated molecules was estimated after the addition of streptavidin-horseradish peroxidase (HRP) conjugate (Sigma), as described previously (Melchior et al., 1993, J Cell Biol 123, 1649-1659). The concentration of bound protein molecules was estimated after the addition of anti-GFP mouse antibody (Santa Cruz) which then was interacted with rabbit anti-mouse IgG antibody conjugated to HRP. The enzymatic activity of HRP was estimated by monitoring the product's optical density (OD) at 490 nm using an ELISA plate reader (Tecan Sunrise). Each measurement was performed at least in duplicate.
(§2) Selection of peptide sequences that interact with the Rev protein, Rev-derived peptides, and the IN itself was made by screening of an N peptide library (NIH AIDS Research and Reference Reagent Program, Division of AIDS, NIAID, NIH: HIV-1 Consensus B Pol (15-mer) peptides—Complete Set from DAIDS, NIAID), using an ELISA-based assay system.
(§3) FIG. 1: 1A—Rev-GFP or GFP alone were incubated in ELISA plates coated with either INr-1 (♦, ⋄, respectively), INr-2 (▪, □, respectively) or INS (▴, Δ, respectively) and binding was determined as described above. 1B—The IN protein was first bound to the ELISA plate and then incubated with Rev-GFP to obtain a Rev-IN complex. The complex was then incubated with either one of the INr peptides or the INS peptide at the designated Rev-GFP:peptide ratio. Wells were then washed and the amount of bound Rev-GFP was determined by mouse anti-GFP antibody and secondary rabbit anti-mouse HRP-conjugated antibody. […]

Rev 13-23 = molecular target: T1, Rev 13-23 (Human immunodeficiency virus type 1 group M subtype B, UniProt P04618); assay: ELISA-based binding assay, biotinylated-BSA-Rev 13-23 conjugate on peptide-coated plates; design: species or system HIV-1
T1 construct: biotinylated-BSA-Rev 13-23 or Rev 53-67 conjugates
Experimental: as §1, §2, §3

Rev 53-67 = molecular target: T2, Rev 53-67 (Human immunodeficiency virus type 1 group M subtype B, UniProt P04618); assay: ELISA-based binding assay, biotinylated-BSA-Rev 53-67 conjugate on peptide-coated plates; design: species or system HIV-1
T2 construct: biotinylated-BSA-Rev 13-23 or Rev 53-67 conjugates
Experimental: as §1, §2, §3

IN [1] = molecular target: T3, IN (Human immunodeficiency virus type 1 group M subtype B, UniProt P12497); assay: IN enzymatic activity assay; type: biochemical, HIV-1; conditions: for integrase activity inhibited by Rev-derived peptide, restoration: molar ratio 1:10 (Rev peptide:INr peptide)
T3 construct: The histidine-tagged IN expression vector was a generous gift from Dr. A. Engelman; histidine tag; made in house
Experimental: The IN enzymatic activity assay was performed using a previously described assay system (Craigie et al., 1991, Nucleic Acids Res 19, 2729-2734, Hwang et al., 2000, Nucleic Acids Res 28, 4884-4892). Briefly, the oligonucleotide substrate consisted of one oligo (5′-[…]-3′) labeled with biotin at the 3′ end and the other oligo (5′-[…]-3′) labeled with digoxigenin at the 5′ end. When inhibition was studied, the IN was preincubated with the peptide or protein for 15 min prior to addition of the DNA substrate.
FIG. 2 (A) Rev-GFP (dark green) or GFP (turquoise) were incubated at different molar ratios with IN (390 nM) and the IN enzymatic activity was determined as described above. (B) Rev-GFP was preincubated with the indicated INS peptide at a molar ratio of 5:1 (peptide:Rev-GFP) and the resultant mixture was added to a solution containing IN to give a molar ratio of 1:200 and 1:400 (IN:Rev-GFP). Following an incubation period, IN activity was estimated as described above. (C) Same as (B) but with the INrs peptides.
FIG. 3 A-C IN (390 nM) was incubated with 50 μM of the Rev-derived peptides (1:300 IN:Rev-derived peptide, Rev13-23 or Rev 53-67) and then the INS peptide was added at different molar ratios ranging from 10:1 to 1:10 (Rev peptide:INS peptide) (A) IN (390 nM) was incubated with 50 μM of the Rev-derived peptides (1:300 IN:Rev-derived peptide), (Rev13-23 (B) and Rev 53-67 (C)) and then the INr peptides were added at different molar ratios ranging from 10:1 to 1:10 (Rev peptide:INr peptide).

IN [2] = molecular target: T3, IN; assay: ELISA-based binding assay, IN protein; design: species or system HIV-1
Experimental: Each measurement was performed at least in duplicate.
Selection of peptide sequences that interact with the Rev protein, Rev-derived peptides, and the IN itself was made by screening of an N peptide library (NIH AIDS Research and Reference Reagent Program, Division of AIDS, NIAID, NIH: HIV-1 Consensus B Pol (15-mer) peptides—Complete Set from DAIDS, NIAID), using an ELISA-based assay system. […] This observation further confirmed that the sequence of the NS and INrs peptides within the N protein mediate the interaction with the Rev protein. The NS peptide interacted with both Rev 13-23 and Rev 53-67 peptides while Nr-1 and Nr-2 interacted with the Rev 53-67 and Rev 13-23 peptides respectively (FIG. 1D and Table 1). […] This was inferred from experiments showing that biotinylated-BSA-Rev 13-23 or Rev 53-67 conjugates were able to interact with NS or INrs peptides-coated plates (FIGS. 1C and 1D).

HeLa cells = assay: Cell-penetration experiments, fluorescein-labeled peptides, confocal microscopy; type: cell-based; conditions: fluorescein-labeled peptide 10 μM
Experimental: Fluorescein-labeled peptides at a final concentration of 10 μM in PBS were incubated with HeLa cells for 1 h at 37° C.
The cells were then washed three times with PBS and visualized by a confocal microscope. […] (C) same as (B) but in H9 lymphocytes

HeLa TZM-b1 cells = assay: Cell viability, MTT assay; type: cell-based; conditions: up to about 62 μM
HIV-1 DNA integration = assay: Copy numbers of HIV-1 DNA integrated into cellular genome, real-time PCR; type: cell-based; conditions: H9 cells, 24 hours post infection, single cycle of infection, Δenv/VSV-G HIV-1
Experimental: During the second-round PCR, the first-round PCR product could be specifically amplified by using the tag-specific primer (tag-F 5′-[…]-3′) and the LTR primer (LTR-R 5′-[…]-3′) designed by PrimerExpress (Applied Biosystems) using default settings. The second-round PCR was performed on 1/25th of the first-round PCR product in a mixture containing 300 nM of each primer, 12.5 μl of 2λ SYBR Green master mixture (Applied Biosystems) at a final volume of 25 μl, run on an ABI PRIZM 7700 (Applied Biosystems).
For generation a standard calibration curve, the SVC21 plasmid containing the full-length HIV-1HXB2 viral DNA was used as a template. In the first-round PCR, the LTR-TAG-F and LTR-R primers were used and the second-round PCR was performed using the tag-F and LTR-R primers. The standard linear curve was in the range of 5 ng to 0.25 fg (R=0.99). DNA samples were assayed with quadruplets of each sample. The cell equivalents in the sample DNA were calculated based on amplification of the 18S gene by real-time PCR as described in (Field et al, 2002, Biochem J 368, 855-864).
. (B) H9 T-lymphoid cells were incubated with the indicated peptides (12.5 μM) or AZT (2 μM) and following HIV-1 infection, the integrated viral DNA/cell was assessed by real-time PCR following a single cycle of infection at a MOI of 5 of Δenv/VSV-G HIV-1.

[3] = Survival of HIV-1 infected and uninfected Hela cells; type: cell-based; conditions: human, uninfected HeLa cells, read-out: intact viable uninfected Hela cells
Experimental: FIG. 7 Percentage of viable infected and uninfected Hela cells normalized every two days to the number of cells in the non treated non infected cells sample. Cells were infected with WT HIV-1 at MOI of 0.01 and the treated cells were added 12.5 μM of INS.

Rev-IN complex = conditions: peptide added to preformed complex
HIV-1 [4] = conditions: H9 and Sup-T1 cells, peptide 12.5 μM
Experimental: Cultured lymphocytes (1×10^5) were centrifuged for 5 min at 2000 rpm and after removal of the supernatant, the cells were resuspended in 0.2 to 0.5 ml of RPMI 1640 medium containing virus at a multiplicity of infection (MOI) of 0.01, 0.1 and 5. Following absorption for 2 h at 37° C., the cells were washed to remove unbound virus and then incubated at the same temperature for an additional 1 to 8 days.
Lymphoid cells were incubated with the indicated peptides for 2 h and following infection with wild-type HIV-1 at a MOI of 0.01 (as described above), the cells were incubated for 8 days, or 48 h at a MOI of 1. The amount of p24 protein was estimated in the cell medium every 2 days exactly as described previously.
The amount of viral P24 (A and B) and virus titer (C and D) were determined every 2 days by ELISA and MAGI assay (Kimpton 1992, J Virol 66, 2232-2239), respectively. The concentration of azidothymidine (AZT) used was 2 μM.

HIV-1 [5] = system: HIV-1
Experimental: Quantitative titration of HIV-1 was carried out using the MAGI assay, as described by Kimpton and Emerman (J Virol 1992, 66, 2232-2239). […] Two days post-infection (PI), cultured cells were fixed and ƒl-galactosidase was estimated as described above. Blue cells were counted under a light microscope at 200× magnification.
The concentration of azidothymidine (AZT) used was 2 μM.

[6] = system: HIV-1 infected lymphocyte cells; assay: Lysis of HIV-1 infected cells after one cycle of infection, MTT; conditions: 62.5-150 μM, ΔENV/VSV-G HIV-1 MOI 10, MTT 48 h post infection

Sequence	interaction with Rev-GFP (Rev-GFP)	interaction with Rev 13-23 peptide (Rev 13-23)	interaction with Rev 53-67 peptide (Rev 53-67)	abrogation of inhibitory effect of Rev 13-23 peptide on IN activity (IN [1]; IN 390 nM, Rev peptide 50 μM)	integrase activity inhibited by Rev-derived peptide, restoration (IN [1])	interaction with the IN protein itself (IN [2])	enzymatic activity of HIV-1 IN (IN [1]; in the absence of the inhibitory Rev peptide)	integrase activity inhibited by Rev-derived peptides, restoration (IN [1]; molar ratio Rev:INS peptide 1:5)	integrase activity in presence of Rev-derived peptides (IN [1]; molar ratio Rev:INS peptide 1:10)	abrogation of Rev-GFP inhibition of IN activity (IN [1]; peptide:Rev-GFP 5:1, IN:Rev-GFP 1:200 and 1:400)	cell penetration (HeLa cells)	cell toxicity (HeLa TZM-b1 cells)	stimulation of integration per cell (HIV-1 DNA integration)	viability at 12.5 µM [3]	release of bound Rev-GFP from the complex formed between IN and Rev-GFP (Rev-IN complex)	appearance of viral p24 antigen (HIV-1 [4])	appearance of infectious viral particles (HIV-1 [5])	cell death after one cycle of infection [6]	abrogation of inhibitory effect of Rev 53-67 peptide on IN activity (IN [1]; IN 390 nM, Rev peptide 50 μM)
WGSNFTSTTVKA [INr-2]	specifically interacting	interacted	not with Rev 53-67	abrogated the inhibitory effect	fully restored														
WTAVQMAVFIHNFKRK [INS]	specifically interacting	interacted	interacted			interact	significantly stimulated	fully restored	stimulate the IN activity	abrogated the inhibitory activities of Rev-GFP	cell-permeable	non-toxic	2- to 5 fold	~100%	induces the release of the bound Rev-GFP	Stimulation	stimulation	induce killing of only infected lymphocyte cells	
WTHLEGKIILVAVHVA [INr-1]	specifically interacting	not with the Rev 13-23 peptide	interacted		fully restored														abrogated the inhibitory effect

Source: US9738878B2, “HIV-1 integrase derived peptides and compositions” (priority 2008, dated 2017)
